These are literature values, as cited in PMC3352981 (Bioorganic & medicinal chemistry letters, 2012).

In data set [1] the test system is BoNT/A.
Data set [2] has as its system BoNT/A. Particulars: mouse.

Turning to `CC(C)(C)c1ccc(C=CC(=O)NO)cc1` [4-tert-butylcinnamyl hydroxamate], in the data set on BoNT/A [1], the “potency (in words)” value was “dramatic loss of potency”.
For `O=C(/C=C/c1ccc(Cl)cc1Cl)NO` [Compound 1, 2,4-dichlorocinnamyl hydroxamic acid], in the data set with BoNT/A [2], the in vivo activity result is given as “marginal in vivo activity”.
